Results published in patent US7402548B2, “Benzoxazole compounds, process for producing the same and herbicides” (Kyoyu Agri Co., Ltd., priority 2000, dated 2008).

Key:
bulrush = assay: Herbicidal test for paddy field; assay type: in vivo, Scrips juncoides; conditions: 500 g/ha, dropwise addition to paddy water at 1.5 leaf stage of barnyard grass; glass house 25° C., 3 weeks; rank 0-5 vs non-treated district
Description: (§1) Wagner pots, each having an area of 1/5000 are, were packed with Ube soil (alluvial soil) and planted with seeds or tubers of young rice plant, barnyard grass, bulrush, Cyperus serotinus Rottb., arrowhead and monochoria. Then, the pots were filled with water to a depth of 3 cm.
(§2) Each wettable powder of the desired Compounds (I) shown in Tables 1 to 21, 24, 25, 28 and 29 prepared in accordance with Example 2 was diluted with water containing a surfactant (0.05%) and subjected to dropwise addition treatment by using pipet so that an effective concentration of the compound (I) in each herbicide became 500 g/ha at 1.5 leaf stage of barnyard grass.
(§3) These plants were controlled in a glass house at an average temperature of 25° C. for 3 weeks, and then herbicidal effects thereof were investigated.
(§4) The herbicidal effects are evaluated according to the following 6 ranks as compared with non-treated district. (0: normal development, 1: Less damaged, 2: Slightly damaged, 3: Moderately damaged, 4: Severely damaged, 5: All killed). Incidentally, “-” in the column means not investigated.

Large crabgrass [1] = assay: Foliar spread test for upland field; assay type: in vivo, Digitaria adscendens; set-up: key: 0 = normal development, 5 = all killed (6 ranks vs. untreated); conditions: foliar spray, 500 ppm, 3 weeks, glass house 25° C.
Procedure, shortened: (§5)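 Plants grown about 2 weeks at 25 °C in volcanic ash soil were sprayed with wettable powder diluted to 500 ppm in water with 0.5% surfactant. After 3 weeks at 25 °C, damage was scored 0 (normal) to 5 (all killed) against untreated plants.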

annual bluegrass [2] = assay: Soil treatment test for upland field; assay type: in vivo, Poa annua; set-up: key: 0 = normal development, 5 = all killed; conditions: 500 g/ha, 3 weeks, glass house 25° C.
Procedure, shortened: (§6)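 Pre-emergence soil spray, 500 g/ha, WP formulation in water + 0.05% surfactant; alluvial soil; glasshouse, avg 25° C, 3 wk. Score 0 (normal) to 5 (all killed) vs untreated.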

livid amaranth [3] = assay: Foliar spread test for upland field; assay type: in vivo, Amaranthus lividus; set-up: key: 0 = normal development, 5 = all killed (6 ranks vs. untreated); conditions: foliar spray, 500 ppm, 3 weeks, glass house 25° C.
Procedure, shortened: as §5

common lambsquarters [4] = assay: Soil treatment test for upland field; assay type: in vivo, Chenopodium album; set-up: key: 0 = normal development, 5 = all killed; conditions: 500 g/ha, 3 weeks, glass house 25° C.
Procedure, shortened: as §6

morning glory [5] = assay: Foliar spread test for upland field; assay type: in vivo, Ipomoea spps.; set-up: key: 0 = normal development, 5 = all killed (6 ranks vs. untreated); conditions: foliar spray, 500 ppm, 3 weeks, glass house 25° C.
Procedure, shortened: as §5

velvetleaf [6] = assay: Soil treatment test for upland field; assay type: in vivo, Abutilon theophrasti; set-up: key: 0 = normal development, 5 = all killed; conditions: 500 g/ha, 3 weeks, glass house 25° C.
Procedure, shortened: as §6

common lambsquarters [7] = assay: Foliar spread test for upland field; assay type: in vivo, Chenopodium album; set-up: key: 0 = normal development, 5 = all killed (6 ranks vs. untreated); conditions: foliar spray, 500 ppm, 3 weeks, glass house 25° C.
Procedure, shortened: as §5

blackgrass [8] = assay: Foliar spread test for upland field; assay type: in vivo, Alopecurus aegualis; set-up: key: 0 = normal development, 5 = all killed (6 ranks vs. untreated); conditions: foliar spray, 500 ppm, 3 weeks, glass house 25° C.
Procedure, shortened: as §5

barnyard grass [9] = assay: Soil treatment test for upland field; assay type: in vivo, Eschinochloa crusgalli; set-up: key: 0 = normal development, 5 = all killed; conditions: 500 g/ha, 3 weeks, glass house 25° C.
Procedure, shortened: as §6

wheat [10] = assay: Foliar spread test for upland field; assay type: in vivo; set-up: key: 0 = normal development, 5 = all killed (6 ranks vs. untreated); conditions: foliar spray, 500 ppm, 3 weeks, glass house 25° C.
Procedure, shortened: as §5

soybean [11] = assay: Foliar spread test for upland field; assay type: in vivo; set-up: key: 0 = normal development, 5 = all killed (6 ranks vs. untreated); conditions: foliar spray, 500 ppm, 3 weeks, glass house 25° C.
Procedure, shortened: as §5

solgum [12] = assay: Foliar spread test for upland field; assay type: in vivo; set-up: key: 0 = normal development, 5 = all killed (6 ranks vs. untreated); conditions: foliar spray, 500 ppm, 3 weeks, glass house 25° C.
Procedure, shortened: as §5

sugar beat [13] = assay: Foliar spread test for upland field; assay type: in vivo; set-up: key: 0 = normal development, 5 = all killed (6 ranks vs. untreated); conditions: foliar spray, 500 ppm, 3 weeks, glass house 25° C.
Procedure, shortened: as §5

corn [14] = assay: Foliar spread test for upland field; assay type: in vivo; set-up: key: 0 = normal development, 5 = all killed (6 ranks vs. untreated); conditions: foliar spray, 500 ppm, 3 weeks, glass house 25° C.
Procedure, shortened: as §5

cotton = assay: Foliar spread test for upland field; assay type: in vivo; set-up: key: 0 = normal development, 5 = all killed (6 ranks vs. untreated); conditions: foliar spray, 500 ppm, 3 weeks, glass house 25° C.
Procedure, shortened: as §5

livid amaranth [15] = assay: Soil treatment test for upland field; assay type: in vivo, Amaranthus lividus; set-up: key: 0 = normal development, 5 = all killed; conditions: 500 g/ha, 3 weeks, glass house 25° C.
Procedure, shortened: as §6

green foxtail [16] = assay: Soil treatment test for upland field; assay type: in vivo, Setaria viridis; set-up: key: 0 = normal development, 5 = all killed; conditions: 500 g/ha, 3 weeks, glass house 25° C.
Procedure, shortened: as §6

barnyardgrjass = assay: Foliar spread test for upland field; assay type: in vivo, Eschinochloa crusgalli; set-up: key: 0 = normal development, 5 = all killed (6 ranks vs. untreated); conditions: foliar spray, 500 ppm, 3 weeks, glass house 25° C.
Procedure, shortened: as §5

barnyard grass [17] = assay: Herbicidal test for paddy field; assay type: in vivo, Eschinochloa crusgalli; conditions: 500 g/ha, dropwise addition to paddy water at 1.5 leaf stage of barnyard grass; glass house 25° C., 3 weeks; rank 0-5 vs non-treated district
Description: as §1, §2, §3, §4

green foxtail [18] = assay: Foliar spread test for upland field; assay type: in vivo, Setaria viridis; set-up: key: 0 = normal development, 5 = all killed (6 ranks vs. untreated); conditions: foliar spray, 500 ppm, 3 weeks, glass house 25° C.
Procedure, shortened: as §5

blackgrass [19] = assay: Soil treatment test for upland field; assay type: in vivo, Alopecurus aegualis; set-up: key: 0 = normal development, 5 = all killed; conditions: 500 g/ha, 3 weeks, glass house 25° C.
Procedure, shortened: as §6

wheat [20] = assay: Soil treatment test for upland field; assay type: in vivo; set-up: key: 0 = normal development, 5 = all killed; conditions: 500 g/ha, 3 weeks, glass house 25° C.
Procedure, shortened: as §6

soybean [21] = assay: Soil treatment test for upland field; assay type: in vivo; set-up: key: 0 = normal development, 5 = all killed; conditions: 500 g/ha, 3 weeks, glass house 25° C.
Procedure, shortened: as §6

solgum [22] = assay: Soil treatment test for upland field; assay type: in vivo; set-up: key: 0 = normal development, 5 = all killed; conditions: 500 g/ha, 3 weeks, glass house 25° C.
Procedure, shortened: as §6

sugar beat [23] = assay: Soil treatment test for upland field; assay type: in vivo; set-up: key: 0 = normal development, 5 = all killed; conditions: 500 g/ha, 3 weeks, glass house 25° C.
Procedure, shortened: as §6

corn [24] = assay: Soil treatment test for upland field; assay type: in vivo; set-up: key: 0 = normal development, 5 = all killed; conditions: 500 g/ha, 3 weeks, glass house 25° C.
Procedure, shortened: as §6

annual bluegrass [25] = assay: Foliar spread test for upland field; assay type: in vivo, Poa annua; set-up: key: 0 = normal development, 5 = all killed (6 ranks vs. untreated); conditions: foliar spray, 500 ppm, 3 weeks, glass house 25° C.
Procedure, shortened: as §5

velvetleaf [26] = assay: Foliar spread test for upland field; assay type: in vivo, Abutilon theophrasti; set-up: key: 0 = normal development, 5 = all killed (6 ranks vs. untreated); conditions: foliar spray, 500 ppm, 3 weeks, glass house 25° C.
Procedure, shortened: as §5

morning glory [27] = assay: Soil treatment test for upland field; assay type: in vivo, Ipomoea spps.; set-up: key: 0 = normal development, 5 = all killed; conditions: 500 g/ha, 3 weeks, glass house 25° C.
Procedure, shortened: as §6

Cyperus serotinus Rottb. = assay: Herbicidal test for paddy field; assay type: in vivo; conditions: 500 g/ha, dropwise addition to paddy water at 1.5 leaf stage of barnyard grass; glass house 25° C., 3 weeks; rank 0-5 vs non-treated district
Description: as §1, §2, §3, §4

Large crabgrass [28] = assay: Soil treatment test for upland field; assay type: in vivo, Digitaria adscendens; set-up: key: 0 = normal development, 5 = all killed; conditions: 500 g/ha, 3 weeks, glass house 25° C.
Procedure, shortened: as §6

**Q.** What does the source list for `CCC(=Cc1cccc(C(F)(F)F)c1)c1nc2cc(C#N)ccc2o1` [I-c-81]?
**A.** Effects Bulrush (bulrush): 5; Effects Large crabgrass (Large crabgrass [1]): 4; Effects Annual bluegrass (annual bluegrass [2]): 5; Effects Livid amaranth (livid amaranth [3]): 5; Effects Common lambsquarters (common lambsquarters [4]): 5; Effects Morning glory (morning glory [5]): 5; Effects Velvetleaf (velvetleaf [6]): 5; Effects Common lambsquarters (common lambsquarters [7]): 5; Effects Blackgrass (blackgrass [8]): 3; Effects Barnyardgrass (barnyard grass [9]): 5; Effects Wheat (wheat [10]): 2; Effects Soybean (soybean [11]): 5; Effects Solgum (solgum [12]): 3; Effects Sugar beat (sugar beat [13]): 4; Effects Corn (corn [14]): 3; Effects Sotton (cotton): 4; Effects Livid amaranth (livid amaranth [15]): 5; Effects Green foxtail (green foxtail [16]): 5; Effects Barnyardgrass (barnyardgrjass): 3; Effects Barnyardgrass (barnyard grass [17]): 5; Effects Green foxtail (green foxtail [18]): 4; Effects Blackgrass (blackgrass [19]): 5; Effects Wheat (wheat [20]): 3; Effects Soybean (soybean [21]): 3; Effects Solgum (solgum [22]): 2; Effects Sugar beat (sugar beat [23]): 5; Effects Corn (corn [24]): 2; Effects Annual bluegrass (annual bluegrass [25]): 4; Effects Velvetleaf (velvetleaf [26]): 3; Effects Morning glory (morning glory [27]): 5; Effects Cyperus serotinus Rottb. (Cyperus serotinus Rottb.): 4; Effects Large crabgrass (Large crabgrass [28]): 5

**Q.** Which results are given for `CCC(=Cc1cccc(C(F)(F)F)c1)c1nc2cc(C#N)c(Cl)cc2o1` [I-c-143]?
**A.** Effects Bulrush (bulrush): 5; Effects Annual bluegrass (annual bluegrass [2]): 5; Effects Common lambsquarters (common lambsquarters [4]): 5; Effects Velvetleaf (velvetleaf [6]): 5; Effects Barnyardgrass (barnyard grass [9]): 4; Effects Livid amaranth (livid amaranth [15]): 5; Effects Green foxtail (green foxtail [16]): 5; Effects Barnyardgrass (barnyard grass [17]): 5; Effects Blackgrass (blackgrass [19]): 4; Effects Wheat (wheat [20]): 1; Effects Soybean (soybean [21]): 3; Effects Solgum (solgum [22]): 3; Effects Sugar beat (sugar beat [23]): 5; Effects Corn (corn [24]): 1; Effects Morning glory (morning glory [27]): 5; Effects Large crabgrass (Large crabgrass [28]): 5

**Q.** Which results are given for `CCCC(=Cc1cccc(C(F)(F)F)c1)c1nc2cc(C#N)c(Cl)cc2o1` [I-c-145]?
**A.** Effects Bulrush (bulrush): 3; Effects Large crabgrass (Large crabgrass [1]): 3; Effects Annual bluegrass (annual bluegrass [2]): 5; Effects Livid amaranth (livid amaranth [3]): 5; Effects Common lambsquarters (common lambsquarters [4]): 5; Effects Morning glory (morning glory [5]): 5; Effects Velvetleaf (velvetleaf [6]): 5; Effects Common lambsquarters (common lambsquarters [7]): 5; Effects Blackgrass (blackgrass [8]): 2; Effects Barnyardgrass (barnyard grass [9]): 4; Effects Wheat (wheat [10]): 2; Effects Soybean (soybean [11]): 5; Effects Solgum (solgum [12]): 2; Effects Sugar beat (sugar beat [13]): 3; Effects Corn (corn [14]): 2; Effects Sotton (cotton): 4; Effects Livid amaranth (livid amaranth [15]): 5; Effects Green foxtail (green foxtail [16]): 5; Effects Barnyardgrass (barnyardgrjass): 2; Effects Barnyardgrass (barnyard grass [17]): 4; Effects Green foxtail (green foxtail [18]): 5; Effects Blackgrass (blackgrass [19]): 5; Effects Wheat (wheat [20]): 1; Effects Soybean (soybean [21]): 0; Effects Solgum (solgum [22]): 1; Effects Sugar beat (sugar beat [23]): 5; Effects Corn (corn [24]): 0; Effects Annual bluegrass (annual bluegrass [25]): 3; Effects Velvetleaf (velvetleaf [26]): 3; Effects Morning glory (morning glory [27]): 5; Effects Large crabgrass (Large crabgrass [28]): 5
